Measured values from patent publication US20100016319A1, “ARYLMETHYLENE UREA DERIVATIVE AND USE THEREOF” (TORAY INDUSTRIES, INC. a corporation of Japan, priority 2005, published 2010).

Columns and labels:
DSS-induced colitis = assay: Dextran sulfate sodium (DSS)-induced colitis model of mice, rectal bleeding score; assay type: in vivo, BALB/c mice; conditions: 30 mg/kg orally every day from Day 27 to Day 31; for amelioration of symptoms / improvement in the rectal bleeding score (in words): Day 32; for rectal bleeding score on Day 32 (0: occult blood-negative, 2: occult blood-positive, 4: apparent bleeding): female BALB/c mice, 3 w/v % DSS
Experimental: (§1) Female BALB/c mice (Japan SLC) of 7 to 9 weeks old were allowed to freely drink 3 w/v % dextran sulfate sodium (DSS) for 5 to 7 days, and then to freely drink sterilized distilled water for 5 days. This procedure was repeated 3 times to induce colitis. The uninduced (background) group was allowed to freely drink sterilized distilled water. The compound described in Example 2 was orally administered to the mice at a dose of 30 mg/kg every day from Day 27 to Day 31 counted from the start of the test, and rectal bleeding was scored (0: occult blood-negative, 2: occult blood-positive, 4: apparent bleeding) by using the method described by Murthy et al (see, for example, Dig Dis Sci., 38, 1722 (1993)).
(§2) On the other hand, the same test as in Example 452 was repeated except that 1-(4-(pyridin-4-yloxy)benzyl)-3-(3-t-butylisoxazol-5-yl)urea (the structural formula thereof is shown below) which is a compound included in WO 04/037789 was used in place of the compound of Example 2. The score on Day 32 (the last day of the test) of the colitis-uninduced group was 0, while the score of the colitis-induced group rose to 1.2±0.2.
as §1, with “Example 10” for “Example 2”
as §2, with “Example 453” for “Example 452”, “that 1-(4-(pyridin-4-yloxy)benzyl)-3-([…])urea” for “that 1-(4-(pyridin-4-yloxy)benzyl)-3-(3-t-butylisoxazol-5-yl)urea”, “Example 10.” for “Example 2.”

[1] = test system: TNFα production in human whole blood; assay: Inhibitory activity on LPS-induced TNFα production in human whole blood; assay type: cell-based; conditions: LPS stimulation, 37° C., 5 hours
Experimental: Inhibitory activities of the arylmethylene urea derivatives according to the present invention to the production of TNFα induced by stimulation with a lipopolysaccharide (LPS) were investigated using human whole blood.
After mixing each of the compounds of the present invention with human blood in a 96-well flat-bottom plate, the lipopolysaccharide (LPS) was added and the mixture was allowed to react at 37° C. for 5 hours. After the reaction, the resulting mixture was centrifuged at room temperature for 15 minutes, and supernatant of the resultant was recovered. For the quantification of TNFα in the supernatant, human cytokine kit (CIS biointernational) was used.

[2] = test system: rhythmic bladder contractions; assay: Rhythmic bladder contractions model in anesthetized rats; assay type: in vivo, SD rats; conditions: i.v., 10 mg/kg; 10 minutes before and after administration; FIG. 2
Source text: Using anesthetized rat rhythmic bladder contractions model, the inhibitory effect of the arylmethylene urea derivatives of the present invention on the detrusor hyperreflexia was investigated.
Female SD rats were anesthetized with an intraperitoneal injection of urethane (1.0 g/kg). A polyethylene tube was inserted from external urethral orifice into the bladder and the tube was fixed by ligating. The other end of the tube was equipped with a three-necked cock, and one of the necks thereof was connected to a pressure transducer for the measurement of intravesical pressure and the other neck was connected to a syringe for the infusion of physiological saline into the bladder. Thirty minutes after the surgery was completed, physiological saline in appropriate volume was infused via the tube in order to induce rhythmic bladder contractions. After stable rhythmic bladder contractions were obtained, a solution of each test compound or the solvent thereof was administered from a caudal vein in a volume of 0.5 mL/kg, and the effect on the frequency of bladder contractions was investigated. As the test compounds, the compounds of Examples 2 and 9 were used.
In each of the figures, the ordinate indicates the number of rhythmic bladder contractions for 10 minutes before and after administration of the compound.

IC50 [1] [nM] | SMILES | also measured
– | CC(C)(C)c1cc(NC(=O)NCc2ccc(Oc3ccncc3)cc2)on1 [1-(4-(pyridin-4-yloxy)benzyl)-3-(3-t-butylisoxazol-5-yl)urea, reference compound] | amelioration of symptoms / improvement in the rectal bleeding score (in words) (DSS-induced colitis): improvement in the score was not observed; rectal bleeding score on Day 32 (0: occult blood-negative, 2: occult blood-positive, 4: apparent bleeding) (DSS-induced colitis): 1.1±0.2
843 | Cc1ccc(-n2nc(C(C)(C)C)cc2NC(=O)NCc2ccccc2Oc2cc(N3CCOCC3)ncn2)cc1 [Example 5, 1-(2-(6-morpholinopyrimidin-4-yloxy)benzyl)-3-(3-t-butyl-1-p-tolyl-1H-pyrazol-5-yl)urea] | melting point: 128.5 °C
119 | Cc1ccc(-n2nc(C(C)(C)C)cc2NC(=O)NCc2ccccc2Oc2ccnc(NCCCN3CCCC3=O)n2)cc1 [Example 6, 1-(2-(2-(3-(2-oxo-pyrrolidin-1-yl)propylamino)pyrimidin-4-yloxy)benzyl)-3-(3-t-butyl-1-p-tolyl-1H-pyrazol-5-yl)urea] | –
296 | Cc1ccc(-n2nc(C(C)(C)C)cc2NC(=O)NCc2ccccc2Oc2ccnc(N3CCN(C)CC3)n2)cc1 [Example 7, 1-(2-(2-(4-methylpiperazin-1-yl)pyrimidin-4-yloxy)benzyl)-3-(3-t-butyl-1-p-tolyl-1H-pyrazol-5-yl)urea] | melting point: 149.5 °C
231 | Cc1ccc(-n2nc(C(C)(C)C)cc2NC(=O)NCc2cc(F)ccc2Oc2ccnc(N3CCOCC3)n2)cc1 [Example 9, 1-(2-(2-morpholinopyrimidin-4-yloxy)-5-fluorobenzyl)-3-(3-t-butyl-1-p-tolyl-1H-pyrazol-5-yl)urea] | effect on the number of rhythmic bladder contractions [2]: inhibited the rhythmic bladder contractions statistically significantly
1040 | CC(=O)N1CCN(c2nccc(Oc3ccccc3CNC(=O)Nc3cc(C(C)(C)C)nn3-c3ccc(C)cc3)n2)CC1 [Example 10, 1-(2-(2-(4-acetylpiperazin-1-yl)pyrimidin-4-yloxy)benzyl)-3-(3-t-butyl-1-p-tolyl-1H-pyrazol-5-yl)urea] | amelioration of symptoms / improvement in the rectal bleeding score (in words) (DSS-induced colitis): marked amelioration of symptoms was observed; rectal bleeding score on Day 32 (0: occult blood-negative, 2: occult blood-positive, 4: apparent bleeding) (DSS-induced colitis): 0.6±0.3
249 | Cc1ccc(-n2nc(C(C)(C)C)cc2NC(=O)NCc2ccccc2Oc2ccnc(NCCCN(C)C)n2)cc1 [Example 11, 1-(2-(2-(3-(dimethylamino)propylamino)pyrimidin-4-yloxy)benzyl)-3-(3-t-butyl-1-p-tolyl-1H-pyrazol-5-yl)urea] | –
268 | COCCN1CCN(c2nccc(Oc3ccccc3CNC(=O)Nc3cc(C(C)(C)C)nn3-c3ccc(C)cc3)n2)CC1 [Example 12, 1-(2-(2-(4-(2-methoxyethyl)piperazin-1-yl)pyrimidin-4-yloxy)benzyl)-3-(3-t-butyl-1-p-tolyl-1H-pyrazol-5-yl)urea] | –
496 | Cc1ccc(-n2nc(C(C)(C)C)cc2NC(=O)NCc2ccccc2Oc2ccnc(N3CCCC(C(N)=O)C3)n2)cc1 (stereo not shown) [Example 13, 1-(4-(2-(((((3-t-butyl-1-p-tolyl-1H-pyrazol-5-yl)amino)carbonyl)amino)methyl)phenoxy)pyrimidin-2-yl)-piperidin-3-carboxylic amide] | –
458 | Cc1ccc(-n2nc(C(C)(C)C)cc2NC(=O)NCc2ccccc2Oc2ccnc(N3CCC(C(N)=O)CC3)n2)cc1 [Example 14, 1-(4-(2-(((((3-t-butyl-1-p-tolyl-1H-pyrazol-5-yl)amino)carbonyl)amino)methyl)phenoxy)pyrimidin-2-yl)-piperidin-4-carboxylic amide] | –
311 | CCN(CC)CCCNc1nccc(Oc2ccccc2CNC(=O)Nc2cc(C(C)(C)C)nn2-c2ccc(C)cc2)n1 [Example 18, 1-(2-(2-(3-(diethylamino)propylamino)pyrimidin-4-yloxy)benzyl)-3-(3-t-butyl-1-p-tolyl-1H-pyrazol-5-yl)urea] | –
343 | Cc1ccc(-n2nc(C(C)(C)C)cc2NC(=O)NCc2ccccc2Oc2ccnc(NCCC3CCCN3C)n2)cc1 (stereo not shown) [Example 20, 1-(2-(2-(2-(1-methylpyrrolidin-2-yl)ethylamino)pyrimidin-4-yloxy)benzyl)-3-(3-t-butyl-1-p-tolyl-1H-pyrazol-5-yl)urea] | –
513 | Cc1ccc(-n2nc(CC(C)(C)C)cc2NC(=O)NCc2ccccc2Oc2ccnc(N3CCOCC3)n2)cc1 [Example 28, 1-(2-(2-morpholinopyrimidin-4-yloxy)benzyl)-3-(3-neopentyl-1-p-tolyl-1H-pyrazol-5-yl)urea] | –
485 | COc1cc(-n2nc(C(C)(C)C)cc2NC(=O)NCc2ccccc2Oc2ccnc(N3CCOCC3)n2)ccc1C [Example 56, 1-(2-(2-morpholinopyrimidin-4-yloxy)benzyl)-3-(3-t-butyl-1-(3-methoxy-4-methylphenyl)-1H-pyrazol-5-yl)urea] | –
354 | Cc1ccc(-n2nc(C(C)(C)C)cc2NC(=O)NCc2ccccc2Oc2cc(N3CCCC(C(N)=O)C3)ncn2)cc1 (stereo not shown) [Example 82, 1-(6-(2-(3-(5-t-butyl-2-p-tolyl-2H-pyrazol-3-yl)-ureidomethyl)phenoxy)pyrimidin-4-yl)piperidin-3-carboxylic amide] | –
422 | Cc1ccc(-n2nc(C(C)(C)C)cc2NC(=O)NCc2cc(F)cc(C)c2Oc2ccnc(Cl)n2)cc1 [Example 85, 1-(2-(2-chloropyrimidin-4-yloxy)-3-methyl-5-fluorobenzyl)-3-(3-t-butyl-1-p-tolyl-1H-pyrazol-5-yl)urea] | –
298 | Cc1ccc(-n2nc(C(C)(C)C)cc2NC(=O)NCc2ccccc2Oc2cc(C)nc(N3CCOCC3)n2)cc1 [Example 98, 1-(2-(6-methyl-2-morpholinopyrimidin-4-yloxy)benzyl)-3-(3-t-butyl-1-p-tolyl-1H-pyrazol-5-yl)urea] | –
– | CC(C)(C)c1cc(NC(=O)NCc2ccc(Oc3ccncc3)cc2)no1 [reference compound] | amelioration of symptoms / improvement in the rectal bleeding score (in words) (DSS-induced colitis): improvement in the score was not observed; rectal bleeding score on Day 32 (0: occult blood-negative, 2: occult blood-positive, 4: apparent bleeding) (DSS-induced colitis): 1.3±0.3
